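1) Cells in 96-well plates. 2) Compound, 48 h, 5 concentrations. 3) Linear interpolation between surrounding doses. 4) Unreached endpoint = highest concentration. Here, GI50 denotes the concentration required for 50% inhibition of growth. Definition used: TGI = concentration required for complete inhibition of growth.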
Assays:
Experiment in all cases: NCI anticancer screen, dose series, 48 h
PC-3 prostate = test system: PC-3 prostate
MALME-3M melanoma = test system: MALME-3M melanoma
SF-268 CNS = test system: SF-268 CNS
HCT-116 colon = test system: HCT-116 colon
SK-MEL-2 melanoma = test system: SK-MEL-2 melanoma
NCI-H460 lung = test system: NCI-H460 lung
KM12 colon = test system: KM12 colon
NCI-H226 lung = test system: NCI-H226 lung
UO-31 renal = test system: UO-31 renal
HL-60(TB) leukemia = test system: HL-60(TB) leukemia

SMILES | TGI (PC-3 prostate) | TGI (MALME-3M melanoma) | TGI (SF-268 CNS) | TGI (HCT-116 colon) | TGI (SK-MEL-2 melanoma) | TGI (NCI-H460 lung) | TGI (KM12 colon) | TGI (NCI-H226 lung) | TGI (UO-31 renal) | TGI (HL-60(TB) leukemia) | GI50 (HCT-116 colon) | GI50 (NCI-H460 lung)
CC(C)(C)OC(=O)n1c(-c2ccccc2F)cc(=O)c2cc3c(cc21)OCO3 | > 100 µM | > 100 µM | > 100 µM | > 31.8 µM | > 100 µM | > 70.8 µM | – | – | – | – | – | –
CSC(SC)=C1C(=O)N(c2ccccc2)N=C1C | > 100 µM | 58.8 µM | > 100 µM | 54 µM | 46.8 µM | 82.4 µM | > 100 µM | 87.1 µM | – | – | – | –
Cc1ccc(-c2c(C#N)c(-c3ccc([N+](=O)[O-])cc3)c(C#N)c(=O)n2NS(=O)(=O)c2ccccc2)cc1 | > 100 µM | > 100 µM | > 100 µM | > 100 µM | > 100 µM | > 100 µM | > 100 µM | > 100 µM | – | – | – | –
C[C@]12CC[C@H](O)C=C1CC[C@@H]1[C@@H]2CC[C@]2(C)C(c3ccc(=O)oc3)CC[C@]12O (stereo partly drawn) | – | 0.014 µM | 0.0269 µM | 0.0674 µM | 0.0647 µM | 0.0156 µM | 0.129 µM | 0.154 µM | 0.041 µM | < 0.0125 µM | – | –
CCOC(=O)[C@@H]1ON2O[C@@H](OC3CCCC3(c3ccccc3)c3ccccc3)C[C@H]3OC(=O)[C@@H]1C32 (stereo partly drawn) | – | – | 70.2 µM | > 100 µM | – | > 100 µM | 29 µM | > 100 µM | 41.1 µM | 60.9 µM | – | –
CC1(C)[C@@H](Cn2cnc3c(Cl)nc(N)nc32)CC[C@@]1(C)CO | > 100 µM | – | 43.3 µM | > 100 µM | 35.1 µM | – | > 100 µM | 91.7 µM | 15 µM | – | – | –
COc1ccccc1N1CCN(CCCNC(=O)c2cc(Cl)c(N)c(Cl)c2)CC1 | – | 37.7 µM | > 100 µM | > 100 µM | – | > 100 µM | > 100 µM | 98 µM | 58.1 µM | 55.8 µM | – | –
COc1cc(CNc2nc3cc(C(F)(F)F)ccc3nc2-c2ccccc2)cc(OC)c1OC | – | 72 µM | > 100 µM | > 100 µM | – | > 100 µM | 53 µM | > 100 µM | > 100 µM | 70 µM | – | –
O=C([CH-]C(=O)c1ccccc1)c1ccccc1.O=C([CH-]C(=O)c1ccccc1)c1ccccc1.[O]=[U+2]=[O] | – | – | – | 15.9 µM | – | 13.1 µM | – | – | – | – | 2.99 µM | 1.99 µM
O=C(CCc1cccc(O)c1)NCCCNC(=O)CCc1cccc(O)c1 | > 100 µM | > 100 µM | > 100 µM | > 100 µM | > 100 µM | > 100 µM | > 100 µM | – | > 100 µM | – | – | –
